Source: patent US20080292619A1, “Pharmaceutical Composition Containing Meltrin Antagonist” (MOCHIDA PHARMACEUTICAL CO., LTD., priority 2004, published 2008)
In the oligonucleotide strings, read from the 5' end, every base follows the letter of its sugar. An asterisk marks phosphorothioate; unmarked linkages are phosphodiester. Other units and linkages are bracketed, terminal groups are in braces. A string of capitals states the bases alone. d = 2'-deoxy (DNA)

Columns and labels:
human meltrin α RNA = experiment: Suppression of human meltrin α expression by antisense compound in RD cell (real time PCR); type: cell-based; conditions: for suppression rate of expression, 50 nM / suppression rate of expression, 200 nM: RD cell; for RNase H-dependent activity of suppressing the meltrin α expression: 2′-methoxy modified form compared to the phosphorothioate form
Procedure, shortened: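 RD cells transfected with heat-denatured antisense oligodeoxynucleotide plus Lipofectin in Opti-MEM for 4 h at 37° C, then cultured 18 h. Meltrin α RNA quantified by TaqMan RT-PCR against plasmid standard curve, GAPDH-corrected; suppression vs untreated cells, rated +/++/+++ for ≥30/50/70%.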

human preadipocyte = experiment: Effect of antisense compound on adipocyte proliferation and differentiation (Adipo Red); type: cell-based; conditions: human adipocyte differentiation
Description: First, human preadipocyte (Human Preadipocytes-sq POIETICS #PT-5020, Sanko Junyaku Co., Ltd.) was suspended in growth medium (#PT-8200, Sanko Junyaku Co., Ltd.), and after adding the suspension to a 96 well culture plate at 1×10^4 cells/well/100 μL, the cells were cultured overnight at 37° C. in the presence of 5% CO2.
The preadipocyte was cultured overnight, and after washing the preadipocyte twice with serum-free DMEM, Opti-MEM was added at 80 μL/well.
Gene transfection reagent Lipofectin was diluted with Opti-MEM to 20 μg/mL, and the dilution was allowed to stand at room temperature for 30 minutes. Next, the antisense oligodeoxynucleotide synthesized as described above was heated at 90° C. for 3 minutes, and after quenching on ice, diluted with Opti-MEM to a concentration 10 times higher than the final concentration. Equal amounts of the Lipofectin in Opti-MEM and the antisense oligodeoxynucleotide in Opti-MEM were mixed, and the mixture was incubated at room temperature for 15 minutes and added to 96 well plate at 20 μL/well. After incubating at 37° C. for 4 hours in the presence of 5% CO2, it was used for examination as described below.
The differentiation medium was prepared by using growth medium (#PT-8200, Sanko Junyaku Co., Ltd.) and supplement kit (PGM Single Quots, #PT-9500, Sanko Junyaku Co., Ltd.) according to the instruction of the kit. Next, the culture supernatant containing the Lipofectin was removed from the 96 well plate prepared in the above (2), and the plate was washed twice with serum-free DMEM, and the differentiation medium prepared as described above was added at 100 μL/well. The plate was then incubated at 37° C. for 5 days to 15 days in the presence of 5% CO2.
Accumulation of the neutral fat in the adipocyte was determined by fluorometry using Adipo Red stain.
After taking the 96 well plate out of the CO2 incubator, the plate was allowed to stand until it reached room temperature. The plate was centrifuged at 300 g (1200 rpm) for 10 minutes at room temperature to remove the medium. Next, after gently washing with PBS (SIGMA) at 200 μL/well, PBS was added to the well at 200 μL/well. Next, Adipo Red Assay Reagent (Adipo Red, Cat. #PT-7009, Lot.3F0497, A Cambrex Company) was added at 5 μL/well, and the plate was allowed to stand at room temperature for at least 10 minutes to thereby stain the neutral fat accumulated in the adipocyte. The fat accumulation was determined by measuring fluorescence intensity in a fluorometer at an excitation wavelength of 485 nm and an emission wavelength of 535 nm.
The suppression rate of the adipocyte differentiation was calculated by converting the fluorescence intensity of the well transfected with the antisense compound in relation to the fluorescence intensity of the well without transfection with the antisense compound which was assumed as 100%. The result was rated “+” when the suppression rate was at least 25%, “++” when the suppression rate was at least 50%, and “+++” when the suppression rate was at least 75%.

Substance: H144 + 18: ggccagaggatctgcaggca (GGCCAGAGGATCTGCAGGCA; antisense; DNA, all phosphorothioate, methylation of C not given here)
- suppression rate of expression, 50 nM (human meltrin α RNA; corrected by GAPDH): +++ (“+++” when the suppression rate was at least 70%)
- RNase H-dependent activity of suppressing the meltrin α expression (human meltrin α RNA): reduced activity of suppressing the meltrin α expression
- Score (suppressing the human adipocyte differentiation) (human preadipocyte): ++ (“++” when the suppression rate was at least 50%)

Substance: H151: gtgtgggtggatctgggcac (dG*dT*dG*dT*dG*dG*dG*dT*dG*dG*dA*dT*dC*dT*dG*dG*dG*dC*dA*dC)
- suppression rate of expression, 50 nM (human meltrin α RNA; corrected by GAPDH): ++ (“++” when the suppression rate was at least 50%)
- suppression rate of expression, 200 nM (human meltrin α RNA; corrected by GAPDH): +++ (“+++” when the suppression rate was at least 70%)
- RNase H-dependent activity of suppressing the meltrin α expression (human meltrin α RNA): reduced activity of suppressing the meltrin α expression
- Score (suppressing the human adipocyte differentiation) (human preadipocyte): ++ (“++” when the suppression rate was at least 50%)

Substance: H135 + 15: gggtctgctgatgtcaacat (GGGTCTGCTGATGTCAACAT; antisense; DNA, all phosphorothioate, methylation of C not given here)
- Score (suppressing the human adipocyte differentiation) (human preadipocyte): + (“+” when the suppression rate was at least 25%)

Substance: H163: cactgtaatcaacattctgc (dC*dA*dC*dT*dG*dT*dA*dA*dT*dC*dA*dA*dC*dA*dT*dT*dC*dT*dG*dC; antisense)
- suppression rate of expression, 200 nM (human meltrin α RNA; corrected by GAPDH): + (“+” when the suppression rate was at least 30%)

Substance: H037: ataagtcccctgagaccaga (ATAAGTCCCCTGAGACCAGA; antisense; DNA, all phosphorothioate, methylation of C not given here)
- suppression rate of expression, 200 nM (human meltrin α RNA; corrected by GAPDH): + (“+” when the suppression rate was at least 30%)

Substance: H135: aacattctgacactgcagca (AACATTCTGACACTGCAGCA; antisense; DNA, all phosphorothioate, methylation of C not given here)
- suppression rate of expression, 50 nM (human meltrin α RNA; corrected by GAPDH): + (“+” when the suppression rate was at least 30%)
- suppression rate of expression, 200 nM (human meltrin α RNA; corrected by GAPDH): ++ (“++” when the suppression rate was at least 50%)

Substance: H143 + 12: tctgaggggggtttggctta (TCTGAGGGGGGTTTGGCTTA; antisense; DNA, all phosphorothioate, methylation of C not given here)
- suppression rate of expression, 50 nM (human meltrin α RNA; corrected by GAPDH): + (“+” when the suppression rate was at least 30%)

Substance: H136 + 5: ggccgttgaggggtctgctg (GGCCGTTGAGGGGTCTGCTG; antisense; DNA, all phosphorothioate, methylation of C not given here)
- suppression rate of expression, 50 nM (human meltrin α RNA; corrected by GAPDH): + (“+” when the suppression rate was at least 30%)

Substance: H133: ggtgggtaggaatctggcgg (GGTGGGTAGGAATCTGGCGG; antisense; DNA, all phosphorothioate, methylation of C not given here)
- suppression rate of expression, 50 nM (human meltrin α RNA; corrected by GAPDH): +++ (“+++” when the suppression rate was at least 70%)
- suppression rate of expression, 200 nM (human meltrin α RNA; corrected by GAPDH): +++ (“+++” when the suppression rate was at least 70%)

Substance: H069: catcccgaaattgtggccca (dC*dA*dT*dC*dC*dC*dG*dA*dA*dA*dT*dT*dG*dT*dG*dG*dC*dC*dC*dA; antisense)
- suppression rate of expression, 200 nM (human meltrin α RNA; corrected by GAPDH): + (“+” when the suppression rate was at least 30%)

Substance: H143 + 9: gaggggggtttggcttacag (GAGGGGGGTTTGGCTTACAG; antisense; DNA, all phosphorothioate, methylation of C not given here)
- suppression rate of expression, 50 nM (human meltrin α RNA; corrected by GAPDH): + (“+” when the suppression rate was at least 30%)

Substance: H098: ctctctcaaagcagatccca (dC*dT*dC*dT*dC*dT*dC*dA*dA*dA*dG*dC*dA*dG*dA*dT*dC*dC*dC*dA; antisense)
- suppression rate of expression, 200 nM (human meltrin α RNA; corrected by GAPDH): + (“+” when the suppression rate was at least 30%)

Substance: H195: tgcctgggcagtaggtttct (dT*dG*dC*dC*dT*dG*dG*dG*dC*dA*dG*dT*dA*dG*dG*dT*dT*dT*dC*dT; antisense)
- suppression rate of expression, 200 nM (human meltrin α RNA; corrected by GAPDH): ++ (“++” when the suppression rate was at least 50%)

Substance: H137 + 2: gggctgagggacattcaggc (GGGCTGAGGGACATTCAGGC; antisense; DNA, all phosphorothioate, methylation of C not given here)
- suppression rate of expression, 50 nM (human meltrin α RNA; corrected by GAPDH): +++ (“+++” when the suppression rate was at least 70%)

Substance: H137 + 3: ggggctgagggacattcagg (GGGGCTGAGGGACATTCAGG; antisense; DNA, all phosphorothioate, methylation of C not given here)
- suppression rate of expression, 50 nM (human meltrin α RNA; corrected by GAPDH): ++ (“++” when the suppression rate was at least 50%)

Substance: H132 + 19: gtgggtaggaatctggcggc (GTGGGTAGGAATCTGGCGGC; antisense; DNA, all phosphorothioate, methylation of C not given here)
- suppression rate of expression, 50 nM (human meltrin α RNA; corrected by GAPDH): + (“+” when the suppression rate was at least 30%)

Substance: H028: ctttccagatttatgatcag (CTTTCCAGATTTATGATCAG; antisense; DNA, all phosphorothioate, methylation of C not given here)
- suppression rate of expression, 200 nM (human meltrin α RNA; corrected by GAPDH): + (“+” when the suppression rate was at least 30%)

Substance: H155: tccaactggagctgaaagat (dT*dC*dC*dA*dA*dC*dT*dG*dG*dA*dG*dC*dT*dG*dA*dA*dA*dG*dA*dT; antisense)
- suppression rate of expression, 200 nM (human meltrin α RNA; corrected by GAPDH): ++ (“++” when the suppression rate was at least 50%)

Substance: H145 + 5: ttgttctggccagaggatct (dT*dT*dG*dT*dT*dC*dT*dG*dG*dC*dC*dA*dG*dA*dG*dG*dA*dT*dC*dT; antisense)
- suppression rate of expression, 50 nM (human meltrin α RNA; corrected by GAPDH): +++ (“+++” when the suppression rate was at least 70%)

Substance: H111: acactttgtgcctgcaagca (dA*dC*dA*dC*dT*dT*dT*dG*dT*dG*dC*dC*dT*dG*dC*dA*dA*dG*dC*dA; antisense)
- suppression rate of expression, 200 nM (human meltrin α RNA; corrected by GAPDH): + (“+” when the suppression rate was at least 30%)

Substance: H020: tcacccctcgggcctcgcag (TCACCCCTCGGGCCTCGCAG; antisense; DNA, all phosphorothioate, methylation of C not given here)
- suppression rate of expression, 200 nM (human meltrin α RNA; corrected by GAPDH): ++ (“++” when the suppression rate was at least 50%)

Substance: H143 + 5: ggggtttggcttacaggtcc (GGGGTTTGGCTTACAGGTCC; antisense; DNA, all phosphorothioate, methylation of C not given here)
- suppression rate of expression, 50 nM (human meltrin α RNA; corrected by GAPDH): ++ (“++” when the suppression rate was at least 50%)

Substance: H075-OMe2: chimeric antisense oligonucleotide AAGTCcttcctgctgCAACT, uppercase 2′-methoxy nucleotides, lowercase phosphorothioate nucleotides (AAGTCCTTCCTGCTGCAACT; 2'-O-methyl at 1, 2, 3, 4, 5, 16, 17, 18, 19, 20, other sugars, backbone and T or U not given here; lowercase gap nucleotides phosphorothioate)
- suppression rate of expression, 200 nM (human meltrin α RNA; chimeric 2′-methoxy antisense oligonucleotides): + (“+” when the suppression rate was at least 30%)

Substance: H077: ggcacacccccattcctttc (dG*dG*dC*dA*dC*dA*dC*dC*dC*dC*dC*dA*dT*dT*dC*dC*dT*dT*dT*dC)
- suppression rate of expression, 200 nM (human meltrin α RNA; corrected by GAPDH): + (“+” when the suppression rate was at least 30%)

Substance: H031: tcagtaccgtcttgcagata (TCAGTACCGTCTTGCAGATA; antisense; DNA, all phosphorothioate, methylation of C not given here)
- suppression rate of expression, 200 nM (human meltrin α RNA; corrected by GAPDH): + (“+” when the suppression rate was at least 30%)

Substance: H001: gactaggaagagcgttagtg (GACTAGGAAGAGCGTTAGTG; antisense; DNA, all phosphorothioate, methylation of C not given here)
- suppression rate of expression, 200 nM (human meltrin α RNA; corrected by GAPDH): + (“+” when the suppression rate was at least 30%)
